For 21 compounds, IC50 results are on record in patent US20240300980A1, “HETEROCYCLIC COMPOUNDS AS KRAS INHIBITOR, AND PREPARATION THEREFOR AND USE THEREOF IN TREATMENT” (SHANGHAI KECHOW PHARMA, INC., priority 2021, published 2024).

Broadly, the IC50 is the concentration that inhibits the measured activity by half.

Structures are written as SMILES.

The test system of this experiment is AGS cells (KRAS^G12D). Put plainly: Detection of cell proliferation in vitro by MTT/MTS method (cell activity experiment). The experiment is classed as cell-based. Conditions: Homo sapiens, AGS, 72 h, AGS cells; MTT/MTS; 3 days of drug treatment; read-out: AGS IC50. An outline of the steps:
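After 3-day compound exposure (final DMSO 0.5%), viability of AGS (KRAS G12D) cells, plated 1000/well one day before dosing, was measured at 490 nm following 4 h MTT or MTS incubation. IC50 was fitted from dose–effect curves relative to DMSO-treated wells.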
(In general: Tetrazolium assays rely on reduction of a dye to a coloured formazan, in cell work by metabolically active cells.)
Take `CCc1c(F)ccc2cc(O)cc(-c3ccc4c(N5C[C@H]6CC[C@@H](C5)S6(=O)=O)nc(OC[C@@]56CCCN5C[C@H](F)C6)nc4c3F)c12` [Example 163, (1R,5S)-3-(7-(8-ethyl-7-fluoro-3-hydroxynaphthalen-1-yl)-8-fluoro-2-(((2R,7aS)-2-fluorotetrahydro-1H-pyrrolizin-7a(5H)-yl)methoxy)quinazolin-4-yl)-8-thia-3-azabicyclo[3.2.1]octane 8,8-dioxide]: the IC50 was more than 2500 nM.

Turning to `Oc1cc(-c2ccc3c(N4C[C@H]5CC[C@@H](C4)S5)nc(OC[C@@]45CCCN4C[C@H](F)C5)nc3c2F)c2c(F)c(F)ccc2c1` [Example 164, 4-(4-((1R,5S)-8-thia-3-azabicyclo[3.2.1]octan-3-yl)-8-fluoro-2-(((2R,7aS)-2-fluorotetrahydro-1H-pyrrolizin-7a(5H)-yl)methoxy)quinazolin-7-yl)-5,6-difluoronaphthalen-2-ol], the half-maximal inhibitory concentration (IC50) amounted to 300 nM. For `[O-][S+]1C2CCC1CN(c1nc(OC[C@@]34CCCN3C[C@H](F)C4)nc3c(F)c(-c4cc(O)cc5ccc(F)c(F)c45)ccc13)C2` (stereo partly drawn) [Example 165, (1R,5S,8R)-3-(7-(7,8-difluoro-3-hydroxynaphthalen-1-yl)-8-fluoro-2-(((2R,7aS)-2-fluorotetrahydro-1H-pyrrolizin-7a(5H)-yl)methoxy)quinazolin-4-yl)-8-thia-3-azabicyclo[3.2.1]octane 8-oxide], the IC50 was more than 2500 nM. Regarding `O=S1(=O)[C@@H]2CC[C@H]1CN(c1nc(OC[C@@]34CCCN3C[C@H](F)C4)nc3c(F)c(-c4cc(O)cc5ccc(F)c(F)c45)ccc13)C2` [Example 166, (1R,5S)-3-(7-(7,8-difluoro-3-hydroxynaphthalen-1-yl)-8-fluoro-2-(((2R,7aS)-2-fluorotetrahydro-1H-pyrrolizin-7a(5H)-yl)methoxy)quinazolin-4-yl)-8-thia-3-azabicyclo[3.2.1]octane 8,8-dioxide], the half-maximal inhibitory concentration (IC50) is more than 2500 nM.

As for `Oc1cc(-c2ccc3c(N4C[C@H]5CC[C@@H](C4)S5)nc(OC[C@@]45CCCN4C[C@H](F)C5)nc3c2F)c2c(F)cccc2c1` [Example 167, 4-(4-((1R,5S)-8-thia-3-azabicyclo[3.2.1]octan-3-yl)-8-fluoro-2-(((2R,7aS)-2-fluorotetrahydro-1H-pyrrolizin-7a(5H)-yl)methoxy)quinazolin-7-yl)-5-fluoronaphthalen-2-ol], the IC50 was determined as 310 nM. For `[O-][S+]1C2CCC1CN(c1nc(OC[C@@]34CCCN3C[C@H](F)C4)nc3c(F)c(-c4cc(O)cc5cccc(F)c45)ccc13)C2` (stereo partly drawn) [Example 168, (1R,5S,8R)-3-(8-fluoro-7-(8-fluoro-3-hydroxynaphthalen-1-yl)-2-(((2R,7aS)-2-fluorotetrahydro-1H-pyrrolizin-7a(5H)-yl)methoxy)quinazolin-4-yl)-8-thia-3-azabicyclo[3.2.1]octane 8-oxide], the IC50 was more than 2500 nM. As for `O=S1(=O)[C@@H]2CC[C@H]1CN(c1nc(OC[C@@]34CCCN3C[C@H](F)C4)nc3c(F)c(-c4cc(O)cc5cccc(F)c45)ccc13)C2` [Example 169, (1R,5S)-3-(8-fluoro-7-(8-fluoro-3-hydroxynaphthalen-1-yl)-2-(((2R,7aS)-2-fluorotetrahydro-1H-pyrrolizin-7a(5H)-yl)methoxy)quinazolin-4-yl)-8-thia-3-azabicyclo[3.2.1]octane 8,8-dioxide], the IC50 is more than 2500 nM. The same measure for `N#Cc1c(OC[C@@]23CCCN2C[C@H](F)C3)nc2cc(-c3cccc4ccc(F)c(Cl)c34)ccc2c1N1C[C@H]2CC[C@@H](C1)N2` [Example 170, 4-((1R,5S)-3,8-diazabicyclo[3.2.1]octan-3-yl)-7-(8-chloro-7-fluoronaphthalen-1-yl)-2-(((2R,7aS)-2-fluorotetrahydro-1H-pyrrolizin-7a(5H)-yl)methoxy)quinoline-3-carbonitrile]: 1040 nM.

For `C#Cc1c(F)ccc2cc(O)cc(-c3ccc4c(N5C[C@H]6CC[C@@H](C5)N6)c(C#N)c(OC[C@@]56CCCN5C[C@H](F)C6)nc4c3)c12` [Example 171, 4-((1R,5S)-3,8-diazabicyclo[3.2.1]octan-3-yl)-7-(8-ethynyl-7-fluoro-3-hydroxynaphthalen-1-yl)-2-(((2R,7aS)-2-fluorotetrahydro-1H-pyrrolizin-7a(5H)-yl)methoxy)quinoline-3-carbonitrile], the IC50 worked out at 1240 nM.

As to `CCc1c(F)ccc2cc(O)cc(-c3ccc4c(N5C[C@H]6CC[C@@H](C5)N6)c(C#N)c(OC[C@@]56CCCN5C[C@H](F)C6)nc4c3)c12` [Example 172, 4-((1R,5S)-3,8-diazabicyclo[3.2.1]octan-3-yl)-7-(8-ethyl-7-fluoro-3-hydroxynaphthalen-1-yl)-2-(((2R,7aS)-2-fluorotetrahydro-1H-pyrrolizin-7a(5H)-yl)methoxy)quinoline-3-carbonitrile], the IC50 was 1230 nM. The same measure for `C#Cc1cccc2cc(O)cc(-c3ccc4c(N5C[C@H]6CC[C@@H](C5)N6)c(C#N)c(OC[C@@]56CCCN5C[C@H](F)C6)nc4c3)c12` [Example 173, 4-((1R,5S)-3,8-diazabicyclo[3.2.1]octan-3-yl)-7-(8-ethynyl-3-hydroxynaphthalen-1-yl)-2-(((2R,7aS)-2-fluorotetrahydro-1H-pyrrolizin-7a(5H)-yl)methoxy)quinoline-3-carbonitrile]: 1450 nM; for `CCc1cccc2cc(O)cc(-c3ccc4c(N5C[C@H]6CC[C@@H](C5)N6)c(C#N)c(OC[C@@]56CCCN5C[C@H](F)C6)nc4c3)c12` [Example 174, 4-((1R,5S)-3,8-diazabicyclo[3.2.1]octan-3-yl)-7-(8-ethyl-3-hydroxynaphthalen-1-yl)-2-(((2R,7aS)-2-fluorotetrahydro-1H-pyrrolizin-7a(5H)-yl)methoxy)quinoline-3-carbonitrile]: 1460 nM; for `N#Cc1c(OC[C@@]23CCCN2C[C@H](F)C3)nc2cc(-c3cc(O)cc4ccc(F)c(F)c34)ccc2c1N1C[C@H]2CC[C@@H](C1)N2` [Example 175, 4-((1R,5S)-3,8-diazabicyclo[3.2.1]octan-3-yl)-7-(7,8-difluoro-3-hydroxynaphthalen-1-yl)-2-(((2R,7aS)-2-fluorotetrahydro-1H-pyrrolizin-7a(5H)-yl)methoxy)quinoline-3-carbonitrile]: 1330 nM. The same measure for `N#Cc1c(OC[C@@]23CCCN2C[C@H](F)C3)nc2cc(-c3cc(O)cc4cccc(F)c34)ccc2c1N1C[C@H]2CC[C@@H](C1)N2` [Example 176, 4-((1R,5S)-3,8-diazabicyclo[3.2.1]octan-3-yl)-7-(8-fluoro-3-hydroxynaphthalen-1-yl)-2-(((2R,7aS)-2-fluorotetrahydro-1H-pyrrolizin-7a(5H)-yl)methoxy)quinoline-3-carbonitrile]: 1340 nM.

As for `C#Cc1c(F)ccc2cc(O)cc(-c3ccc4c(N5C[C@H]6CC[C@@H](C5)N6)c(C#N)c(OC[C@@]56CCCN5C[C@H](F)C6)nc4c3F)c12` [Example 177, 4-((1R,5S)-3,8-diazabicyclo[3.2.1]octan-3-yl)-7-(8-ethynyl-7-fluoro-3-hydroxynaphthalen-1-yl)-8-fluoro-2-(((2R,7aS)-2-fluorotetrahydro-1H-pyrrolizin-7a(5H)-yl)methoxy)quinoline-3-carbonitrile], the IC50 amounted to 530 nM. Next, `CCc1c(F)ccc2cc(O)cc(-c3ccc4c(N5C[C@H]6CC[C@@H](C5)N6)c(C#N)c(OC[C@@]56CCCN5C[C@H](F)C6)nc4c3F)c12` [Example 178, 4-((1R,5S)-3,8-diazabicyclo[3.2.1]octan-3-yl)-7-(8-ethyl-7-fluoro-3-hydroxynaphthalen-1-yl)-8-fluoro-2-(((2R,7aS)-2-fluorotetrahydro-1H-pyrrolizin-7a(5H)-yl)methoxy)quinoline-3-carbonitrile]: 535 nM; `N#Cc1c(OC[C@@]23CCCN2C[C@H](F)C3)nc2c(F)c(-c3cc(O)cc4ccc(F)c(F)c34)ccc2c1N1C[C@H]2CC[C@@H](C1)N2` [Example 179, 4-((1R,5S)-3,8-diazabicyclo[3.2.1]octan-3-yl)-7-(7,8-difluoro-3-hydroxynaphthalen-1-yl)-8-fluoro-2-(((2R,7aS)-2-fluorotetrahydro-1H-pyrrolizin-7a(5H)-yl)methoxy)quinoline-3-carbonitrile]: 550 nM; `N#Cc1c(OC[C@@]23CCCN2C[C@H](F)C3)nc2c(F)c(-c3cc(O)cc4cccc(F)c34)ccc2c1N1C[C@H]2CC[C@@H](C1)N2` [Example 180, 4-((1R,5S)-3,8-diazabicyclo[3.2.1]octan-3-yl)-8-fluoro-7-(8-fluoro-3-hydroxynaphthalen-1-yl)-2-(((2R,7aS)-2-fluorotetrahydro-1H-pyrrolizin-7a(5H)-yl)methoxy)quinoline-3-carbonitrile]: 556 nM. Next, `CCc1cccc2cc(O)cc(-c3ccc4c(N5C[C@H]6CC[C@@H](C5)N6)c(C#N)c(OC[C@@]56CCCN5C[C@H](F)C6)nc4c3F)c12` [Example 181, 4-((1R,5S)-3,8-diazabicyclo[3.2.1]octan-3-yl)-7-(8-ethyl-3-hydroxynaphthalen-1-yl)-8-fluoro-2-(((2R,7aS)-2-fluorotetrahydro-1H-pyrrolizin-7a(5H)-yl)methoxy)quinoline-3-carbonitrile]: 536 nM. The same measure for `C#Cc1cccc2cc(O)cc(-c3ccc4c(N5C[C@H]6CC[C@@H](C5)N6)c(C#N)c(OC[C@@]56CCCN5C[C@H](F)C6)nc4c3F)c12` [Example 182, 4-((1R,5S)-3,8-diazabicyclo[3.2.1]octan-3-yl)-7-(8-ethynyl-3-hydroxynaphthalen-1-yl)-8-fluoro-2-(((2R,7aS)-2-fluorotetrahydro-1H-pyrrolizin-7a(5H)-yl)methoxy)quinoline-3-carbonitrile]: 533 nM; for `C#Cc1c(F)ccc2cc(O)cc(-c3ccc4c(N5C[C@H]6CC[C@@H](C5)N6)c(C(F)(F)F)c(OC[C@@]56CCCN5C[C@H](F)C6)nc4c3)c12` [Example 183, 4-(4-((1R,5S)-3,8-diazabicyclo[3.2.1]octan-3-yl)-2-(((2R,7aS)-2-fluorotetrahydro-1H-pyrrolizin-7a(5H)-yl)methoxy)-3-(trifluoromethyl)quinolin-7-yl)-5-ethynyl-6-fluoronaphthalen-2-ol]: more than 2500 nM.
